According to ChEMBL document CHEMBL4043091, “Lead Discovery of Dual G-Quadruplex Stabilizers and Poly(ADP-ribose) Polymerases (PARPs) Inhibitors: A New Avenue in Anticancer Treatment” (J Med Chem, 2017):
Calls of active or inactive are those of the source. The calls are words filed in the database; no cut-off is given here.

Tests used:
Homo sapiens [1] = organism: Homo sapiens; assay: Binding affinity to G-quadruplex DNA in human BJeH-LT cells at 1 uM after 24 hrs by hoechst staining-based immunofluorescence analysis; assay type: cell-based
BJeH-LT [2] = assay: Induction of DNA damage in human BJeH-LT cells assessed as increase in gamma-H2AX foci formation at 1 uM after 24 hrs by hoechst staining-based immunofluorescence analysis; assay type: functional, cell-based
DLD-1 [3] = assay: Antiproliferative activity against human DLD1 cells harboring BRCA2 up to 2 uM after 6 days by MTT assay; assay type: functional, cell-based
DLD-1 [4] = assay: Antiproliferative activity against human DLD1 cells deficient BRCA2 up to 2 uM after 6 days by MTT assay; assay type: functional, cell-based
Homo sapiens [5] = organism: Homo sapiens; assay: Binding affinity to human telomeric 23 G-quadruplex DNA assessed as change in melting temperature at 10 molequiv after 30 mins by CD spectra analysis
Homo sapiens [6] = organism: Homo sapiens; assay: Binding affinity to human telomeric 26 G-quadruplex DNA assessed as change in melting temperature at 10 molequiv after 30 mins by CD spectra analysis
Homo sapiens [7] = organism: Homo sapiens; assay: Binding affinity to human telomeric 23-p G-quadruplex DNA assessed as change in melting temperature at 10 molequiv after 30 mins by CD spectra analysis
hTERT-BJ = assay: Induction of DNA damage in human hTERT-BJ cells assessed as increase in gamma-H2AX foci formation at 1 uM after 24 hrs by hoechst staining-based immunofluorescence analysis; assay type: cell-based
BJeH-LT [8] = assay: Induction of DNA damage in human BJeH-LT cells assessed as increase in telomere's dysfunction induced foci positive nuclei at 1 uM after 24 hrs by hoechst staining-based immunofluorescence analysis; assay type: functional, cell-based
BJeH-LT [9] = assay: Induction of DNA damage in human BJeH-LT cells assessed as increase in gamma-H2AX foci formation at 1 uM after 24 hrs followed by compound washout by hoechst staining-based immunofluorescence analysis; assay type: functional, cell-based
Homo sapiens [10] = organism: Homo sapiens; assay: Binding affinity to human telomeric 23-p G-quadruplex DNA assessed as increase in melting temperature up to 240 uM after 30 mins by CD spectra analysis
[11] = Binding affinity to 12-mer duplex DNA (unknown origin) at 10 molequiv after 30 mins by CD spectra analysis
BJeH-LT [12] = assay: Induction of DNA damage in human BJeH-LT cells assessed as increase in gamma-H2AX foci formation at >1 uM after 24 hrs by hoechst staining-based immunofluorescence analysis; assay type: functional, cell-based
Homo sapiens [13] = organism: Homo sapiens; assay: Binding affinity to human Cy5-labeled telomeric 26 G-quadruplex DNA at 10^-1 to 10^4 nM by […] analysis
Homo sapiens [14] = organism: Homo sapiens; assay: Inhibition of PARP in human BJeH-LT cells assessed as reduction of Poly(ADP-ribosyl)ation at 1 uM preincubated for 16 hrs followed by [3H]NAD addition measured after 10 mins by liquid scintillation counting method; assay type: cell-based
[15] = biological target: Poly [ADP-ribose] polymerase 1 (Homo sapiens, UniProt P09874); assay: Inhibition of recombinant human PARP1 expressed in Escherichia coli assessed as reduction of Poly(ADP-ribosyl)ation after 15 mins in presence of [3H]NAD+/cleaved DNA/histones by scintillation counting method
Chain of Poly [ADP-ribose] polymerase 1 (P09874 whole entry): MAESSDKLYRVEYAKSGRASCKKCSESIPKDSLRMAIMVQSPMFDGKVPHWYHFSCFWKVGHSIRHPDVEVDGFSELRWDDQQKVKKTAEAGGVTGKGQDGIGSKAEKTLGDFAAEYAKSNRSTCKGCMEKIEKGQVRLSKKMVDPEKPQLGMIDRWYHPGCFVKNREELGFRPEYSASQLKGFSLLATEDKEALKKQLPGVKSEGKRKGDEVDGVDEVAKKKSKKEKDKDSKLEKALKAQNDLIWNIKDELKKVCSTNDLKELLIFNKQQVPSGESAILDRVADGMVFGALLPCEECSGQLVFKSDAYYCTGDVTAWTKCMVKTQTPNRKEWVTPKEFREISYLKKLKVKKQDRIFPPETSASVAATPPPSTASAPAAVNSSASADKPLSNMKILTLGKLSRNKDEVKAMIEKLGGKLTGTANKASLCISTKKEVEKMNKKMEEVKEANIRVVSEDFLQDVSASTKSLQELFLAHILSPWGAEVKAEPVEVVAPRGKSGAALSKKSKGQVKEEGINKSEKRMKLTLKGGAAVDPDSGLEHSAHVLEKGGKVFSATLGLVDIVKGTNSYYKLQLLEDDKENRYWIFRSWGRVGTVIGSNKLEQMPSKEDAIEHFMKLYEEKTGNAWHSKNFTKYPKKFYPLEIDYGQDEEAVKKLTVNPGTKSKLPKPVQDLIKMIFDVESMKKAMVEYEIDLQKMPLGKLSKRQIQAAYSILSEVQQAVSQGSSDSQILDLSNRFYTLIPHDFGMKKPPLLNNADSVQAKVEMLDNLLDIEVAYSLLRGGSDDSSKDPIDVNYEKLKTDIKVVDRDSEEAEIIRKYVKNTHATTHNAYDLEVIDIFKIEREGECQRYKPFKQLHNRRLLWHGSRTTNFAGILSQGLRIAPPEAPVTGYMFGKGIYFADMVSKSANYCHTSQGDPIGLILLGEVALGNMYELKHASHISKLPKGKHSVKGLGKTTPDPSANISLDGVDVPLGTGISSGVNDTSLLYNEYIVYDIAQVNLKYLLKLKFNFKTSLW

Homo sapiens [16] = organism: Homo sapiens; assay: Binding affinity to human telomeric 23-p G-quadruplex DNA assessed as increase in melting temperature at lower concentration after 30 mins by CD spectra analysis
Homo sapiens [17] = organism: Homo sapiens; assay: Binding affinity to human telomeric 23 G-quadruplex DNA assessed as increase in melting temperature up to 300 uM after 30 mins by CD spectra analysis
Homo sapiens [18] = organism: Homo sapiens; assay: Binding affinity to human telomeric 26 G-quadruplex DNA assessed as increase in melting temperature up to 300 uM after 30 mins by CD spectra analysis
[19] = Binding affinity to human Cy5-labeled telomeric 26 G-quadruplex DNA by […] analysis
[20] = Binding affinity to 5'-FAM/3'-TAMRA labelled F21T G-quadruplex DNA (unknown origin) assessed as change in melting temperature at 4 uM by FRET assay
[21] = Binding affinity to 5'-FAM/3'-TAMRA labelled F21T G-quadruplex DNA (unknown origin) assessed as increase in melting temperature at 4 uM in presence of 5 to 10 uM 12-mer duplex DNA by FRET assay

Row | ΔTm (Homo sapiens [5]) [°C] | ΔTm (Homo sapiens [6]) [°C] | ΔTm (Homo sapiens [7]) [°C] | Structure (SMILES) | Activity (Homo sapiens [1]) | Activity (BJeH-LT [2]) | Activity (hTERT-BJ) | Activity (BJeH-LT [8]) | Activity (BJeH-LT [9]) | further results
1 |  |  |  | O=c1[nH]c2sccc2c2ccccc12 | inactive | inactive |  |  |  | Activity (DLD-1 [3]): inactive; Activity (DLD-1 [4]): inactive
2 | -0.8 | 1.4 | 1.4 | COC(=O)c1cc2c(s1)c1ccccc1c(=O)n2C | Active | Active | Non-Toxic | inactive | inactive | 
3 | 1.5 | 2.2 | 1.9 | COC(=O)c1cc2c(=O)[nH]c3ccccc3c2s1 | Active | Active | Non-Toxic | inactive | inactive | 
4 | 1.6 | 3 | 10.5 | Cn1c(=O)c2ccccc2c2sc(C(=O)NCCN3CCC(Cc4ccccc4)CC3)cc21 | Active | Active | Non-Toxic | Active | inactive | Activity (Homo sapiens [10]): Active; Activity [11]: inactive
5 |  |  |  | CN1C(=O)C2C=C(C(=O)NCCN3CCC(Cc4ccccc4)CC3)SC2c2ccccc21 (stereo unspecified) | Active |  |  | Active |  | Activity (DLD-1 [3]): Active; Activity (DLD-1 [4]): Active
6 | 0.1 | 1.3 | 2.6 | COC1CCN(C(=O)c2cc(Cc3n[nH]c(=O)c4ccccc34)ccc2F)CC1 | inactive |  |  |  |  | 
7 | 0.3 | 2.6 | 7.7 | O=C(NCCN1CCC(Cc2ccccc2)CC1)c1cc2c(=O)[nH]c3ccccc3c2s1 | Active | Active | Non-Toxic | Active | inactive | Activity (Homo sapiens [10]): Active; Activity [11]: inactive
8 | 0.9 | 0.9 | 3 | COC(=O)c1cc2[nH]c(=O)c3ccccc3c2s1 | Active |  |  |  | inactive | Activity (BJeH-LT [12]): inactive
9 | 0 | 1.1 | 2.4 | Cc1nc2c(O)cccc2c(=O)[nH]1 |  |  |  |  |  | 
10 | 0.4 | 0.4 | 2.4 | COC(=O)c1cc2c(=O)n(C)c3ccccc3c2s1 | Active |  |  |  | inactive | Activity (Homo sapiens [13]): inactive; Activity (BJeH-LT [12]): inactive
11 | 0.7 | 2 | 4.2 | O=C(NCCN1CCC(Cc2ccccc2)CC1)c1cc2[nH]c(=O)c3ccccc3c2s1 |  |  |  |  | inactive | inhibition (Homo sapiens [14]): Active; IC50 [15]: 223 nM
12 | 5.8 | 5.5 | 7 | Cn1c(=O)c2cc(C(=O)NCCN3CCC(Cc4ccccc4)CC3)sc2c2ccccc21 | Active | Active | Non-Toxic | Active | inactive | Activity (Homo sapiens [16]): Active; Activity (Homo sapiens [17]): Active; Activity (Homo sapiens [18]): Active; Activity [11]: inactive; Kd [19]: 240 nM; ΔTm [20]: 4.5 °C; Activity [21]: Active
13 |  |  |  | Oc1nc(-c2ccc(C(F)(F)F)cc2)nc2c1CSCC2 | inactive |  |  |  |  | 
